# From US9029639B2, “Pyridazine compounds for controlling invertebrate pests” (BASF SE, priority 2009, dated 2015)
# Test system: Cowpea aphid (Aphis craccivora)
# Experiment: Activity against cowpea aphid (Aphis craccivora), spray on potted cowpea plants
# Format: in vivo
# Conditions: population reduction assessed after 24, 72 and 120 hours, read-out: mortality in comparison with untreated controls
# Description: II.3 Activity Against Cowpea Aphid (Aphis craccivora)
# The active compounds were formulated in 50:50 (vol:vol) acetone:water. The test solution was prepared at the day of use.
# Potted cowpea plants colonized with 100-150 aphids of various stages were sprayed after the pest population had been recorded. Population reduction was assesed after 24, 72, and 120 hours.
structure (smiles),measurement,value
"Cc1nc(C(=O)N(C)c2ccnnc2)cs1 [Compound 5, 2-Methyl-thiazole-4-carboxylic acid methyl-pyridazin-4-yl-amide]",mortality at 300 ppm,≥ 90%
